{"source": "ChEMBL document CHEMBL1129182", "about": "“Oximes: A new class of methoxytetrahydropyranyl inhibitors of leukotriene biosynthesis with high in vitro and in vivo potency” (Bioorg Med Chem Lett, 1996)", "data": [{"system": "not listed separately", "experiment": "Solubility was evaluated", "assay_type": "physicochemical", "units": {"solubility": "µM"}, "values": [{"smiles": "CO[C@]1(c2cnc(S(=O)(=O)c3ccc(/C(C)=N/O)cc3)s2)CCO[C@@H](C)C1", "solubility": 31}, {"smiles": "CO[C@]1(c2cc(F)cc(S(=O)(=O)c3ccc(/C(C)=N/O)cc3)c2)CCO[C@@H](C)C1", "solubility": 4.6}, {"smiles": "CO[C@]1(c2cnc(S(=O)(=O)c3ccc(/C(C)=N/OCC#N)cc3)s2)CCO[C@@H](C)C1", "solubility": 1}, {"smiles": "CO[C@]1(c2cc(F)cc(Sc3ccc(/C(C)=N/O)cc3)c2)CCO[C@@H](C)C1", "solubility": 0.6}]}, {"system": "not listed separately", "experiment": "pKa value was evaluated", "assay_type": "physicochemical", "values": [{"smiles": "COC1(c2cc(F)cc(Sc3ccc(/C(=N/O)C(F)(F)F)cc3)c2)CCOCC1", "pKa": 7.68}, {"smiles": "COC1(c2cc(F)cc(Sc3ccc(/C(C#N)=N/O)cc3)c2)CCOCC1", "pKa": 6.2}, {"smiles": "CCOC(=O)/C(=N\\O)c1ccc(Sc2cc(F)cc(C3(OC)CCOCC3)c2)cc1", "pKa": 9.3}, {"smiles": "COC1(c2cc(F)cc(Sc3ccc(/C(=N/O)C(C)=O)cc3)c2)CCOCC1", "pKa": 8.4}]}, {"organism": "Homo sapiens", "experiment": "In vitro inhibitory activity against LTB4 synthesis in A-23187 stimulated human whole blood (HB1).", "assay_type": "functional", "units": {"IC50": "nM"}, "values": [{"smiles": "COC1(c2cc(F)cc(Sc3ccc4c(c3)CC/C4=N\\OCC#N)c2)CCOCC1", "IC50": 30}, {"smiles": "COC(=O)C(C)(C)CO/N=C(\\C)c1ccc(Sc2cc(F)cc(C3(OC)CCOCC3)c2)cc1", "IC50": 420}, {"smiles": "COC1(c2csc(Sc3ccc4c(c3)CC/C4=N\\O)c2)CCOCC1", "IC50": 130}, {"smiles": "COC1(c2cc(F)cc(Sc3ccc(/C(C)=N/OCC#N)cc3)c2)CCOCC1", "IC50": 20}, {"smiles": "COC1(c2cc(F)cc(Sc3ccc4c(c3)OCC/C4=N\\O)c2)CCOCC1", "IC50": 50}, {"smiles": "COC1(c2cc(F)cc(Sc3ccc(/C(=N/O)SC)cc3)c2)CCOCC1", "IC50": 190}, {"smiles": "CO[C@]1(c2cnc(S(=O)(=O)c3ccc(/C(C)=N/O)cc3)s2)CCO[C@@H](C)C1", "IC50": 320}, {"smiles": "CO[C@]1(c2cc(F)cc(Sc3ccc(/C(C)=N/OCC#N)cc3)c2)CCO[C@@H](C)C1", "IC50": 40}, {"smiles": "CCOC(=O)CO/N=C(\\C)c1ccc(Sc2cc(F)cc(C3(OC)CCOCC3)c2)cc1", "IC50": 610}, {"smiles": "COC1(c2cc(F)cc(Sc3ccc(/C(=N/O)C(F)(F)F)cc3)c2)CCOCC1", "IC50": 280}, {"smiles": "COC1(c2cc(F)cc(Sc3ccc(/C(C)=N/OC(C)C)cc3)c2)CCOCC1", "IC50": 920}, {"smiles": "COC1(c2cc(F)cc(Sc3ccc(/C(C)=N/OCCF)cc3)c2)CCOCC1", "IC50": 40}, {"smiles": "COC1(c2csc(Sc3ccc4c(c3)OCC/C4=N\\O)c2)CCOCC1", "IC50": 40}, {"smiles": "COC1(c2csc(Sc3ccc4c(c3)OCC/C4=N\\OCC#N)c2)CCOCC1", "IC50": 60}, {"smiles": "COC1(c2cc(F)cc(Sc3ccc(/C(C#N)=N/O)cc3)c2)CCOCC1", "IC50": 250}, {"smiles": "COC1(c2cc(F)cc(Sc3ccc(/C(C)=N/OC(C)=O)cc3)c2)CCOCC1", "IC50": 50}, {"smiles": "CO/N=C(\\C)c1ccc(Sc2cc(F)cc(C3(OC)CCOCC3)c2)cc1", "IC50": 110}, {"smiles": "C/C(=N\\OC(=O)N(C)C)c1ccc(Sc2cc(F)cc(C3CCOCC3)c2)cc1", "IC50": 2610}, {"smiles": "COC1(c2cc(F)cc(OCc3ccc4c(ccc(=O)n4C)c3)c2)CCOCC1", "note": "[ZD-2138]", "IC50": 25}, {"smiles": "CO[C@]1(c2cc(F)cc(S(=O)(=O)c3ccc(/C(C)=N/O)cc3)c2)CCO[C@@H](C)C1", "IC50": 20}, {"smiles": "CO/N=C(\\C)c1ccc(Sc2cc(F)cc([C@@]3(OC)CCO[C@@H](C)C3)c2)cc1", "IC50": 140}, {"smiles": "CO[C@]1(c2cnc(S(=O)(=O)c3ccc(/C(C)=N/OCC#N)cc3)s2)CCO[C@@H](C)C1", "IC50": 140}, {"smiles": "COC1(c2csc(Sc3ccc4c(c3)CC/C4=N\\OCC#N)c2)CCOCC1", "IC50": 40}, {"smiles": "CO[C@]1(c2cnc(Sc3ccc(/C(C)=N/O)cc3)s2)CCO[C@@H](C)C1", "IC50": 40}, {"smiles": "COC1(c2cc(F)cc(Sc3ccc4c(c3)OCC/C4=N\\OCC#N)c2)CCOCC1", "IC50": 40}, {"smiles": "COC1(c2cc(F)cc(Sc3ccc(/C(C)=N/OCCSc4nnc(C)s4)cc3)c2)CCOCC1", "IC50": 230}, {"smiles": "CO[C@]1(c2cc(F)cc(S(=O)(=O)c3ccc(/C(C)=N/OCC#N)cc3)c2)CCO[C@@H](C)C1", "IC50": 60}, {"smiles": "CO[C@]1(c2cnc(Sc3ccc(/C(C)=N/OCC#N)cc3)s2)CCO[C@@H](C)C1", "IC50": 40}, {"smiles": "CO[C@]1(c2cc(F)cc(Sc3ccc(/C(C)=N/O)cc3)c2)CCO[C@@H](C)C1", "IC50": 40}, {"smiles": "COC1(c2cc(F)cc(Sc3ccc(/C(C)=N/OC(=O)C(C)(C)C)cc3)c2)CCOCC1", "IC50": 40}, {"smiles": "COC1(c2cc(F)cc(Sc3ccc(/C(C)=N/OCC(=O)O)cc3)c2)CCOCC1", "IC50": 740}, {"smiles": "COC1(c2cc(F)cc(Sc3ccccc3/C(C)=N/O)c2)CCOCC1", "IC50": "> 10000"}, {"smiles": "COC1(c2cc(F)cc(Sc3ccc4c(c3)CC/C4=N\\O)c2)CCOCC1", "IC50": 290}, {"smiles": "CCOC(=O)c1csc(CO/N=C(\\C)c2ccc(Sc3cc(F)cc(C4(OC)CCOCC4)c3)cc2)n1", "IC50": 150}, {"smiles": "CCOC(=O)/C(=N\\O)c1ccc(Sc2cc(F)cc(C3(OC)CCOCC3)c2)cc1", "IC50": 170}, {"smiles": "COC1(c2cc(F)cc(Sc3ccc(/C(=N/O)C(C)=O)cc3)c2)CCOCC1", "IC50": 850}]}, {"organism": "Rattus norvegicus", "experiment": "compound was tested for oral activity in the rat using zymosan-inflamed air pouch exudate at 3 hrs post dose(RAP).", "assay_type": "functional", "units": {"ED50": "mg/kg"}, "values": [{"smiles": "CO[C@]1(c2cnc(S(=O)(=O)c3ccc(/C(C)=N/O)cc3)s2)CCO[C@@H](C)C1", "ED50": 1}, {"smiles": "CO[C@]1(c2cc(F)cc(Sc3ccc(/C(C)=N/OCC#N)cc3)c2)CCO[C@@H](C)C1", "ED50": 0.15}, {"smiles": "COC1(c2csc(Sc3ccc4c(c3)OCC/C4=N\\OCC#N)c2)CCOCC1", "ED50": 0.15}, {"smiles": "CO[C@]1(c2cc(F)cc(S(=O)(=O)c3ccc(/C(C)=N/O)cc3)c2)CCO[C@@H](C)C1", "ED50": 0.1}, {"smiles": "CO/N=C(\\C)c1ccc(Sc2cc(F)cc([C@@]3(OC)CCO[C@@H](C)C3)c2)cc1", "ED50": 0.15}, {"smiles": "CO[C@]1(c2cnc(S(=O)(=O)c3ccc(/C(C)=N/OCC#N)cc3)s2)CCO[C@@H](C)C1", "ED50": 0.5}, {"smiles": "CO[C@]1(c2cnc(Sc3ccc(/C(C)=N/O)cc3)s2)CCO[C@@H](C)C1", "ED50": 0.3}, {"smiles": "CO[C@]1(c2cc(F)cc(S(=O)(=O)c3ccc(/C(C)=N/OCC#N)cc3)c2)CCO[C@@H](C)C1", "ED50": 0.1}, {"smiles": "CO[C@]1(c2cnc(Sc3ccc(/C(C)=N/OCC#N)cc3)s2)CCO[C@@H](C)C1", "ED50": 0.3}, {"smiles": "CO[C@]1(c2cc(F)cc(Sc3ccc(/C(C)=N/O)cc3)c2)CCO[C@@H](C)C1", "ED50": 0.05}]}]}
